Assay results as given in ChEMBL document CHEMBL3137667, “[Drug-induced liver injury; fourteenth updated edition of the bibliographic database of liver injuries and related drugs]” (Gastroenterol Clin Biol, 2004).

Key:
[1] = Comments (NB not yet translated). [column 'COMMENTAIRES' in source]; settings: human
[2] = Highest frequency of acute liver toxicity observed during clinical trials, expressed as a percentage. [column '% AIGUE' in source]; settings: human
[3] = human
[4] = human; remark: listed apart in the source
[5] = human; remark: listed apart in the source
[6] = human; remark: listed apart in the source
[7] = human, serum
[8] = Highest frequency of moderate liver toxicity observed during clinical trials, expressed as a percentage. [column '% BIOL' in source]; settings: human
[9] = human; remark: listed apart in the source
[10] = Proposed mechanism(s) of liver damage. [column 'MEC' in source]; settings: human
[11] = human; remark: listed apart in the source
[12] = human, serum; remark: listed apart in the source
[13] = Times to onset, minimal and maximal, observed in the indexed observations. [column 'DELAI' in source]; settings: human
[14] = human; remark: listed apart in the source
[15] = Presence of at least one case with successful reintroduction. [column 'REINT' in source]; settings: human
[16] = human; remark: listed apart in the source
[17] = human, serum, 4383 h
[18] = human; remark: listed apart in the source
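Wherever Hepatotoxicity (association with vascular disease) is given: count of indexed literature references reporting vascular liver injury in humans, e.g. peliosis hepatitis, hepatic veno-occlusive disease or Budd-Chiari syndrome.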
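Wherever Hepatotoxicity (benign tumour) is given: value is a count of indexed literature references citing a benign tumour confirmed by histopathology.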
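Wherever Hepatotoxicity (choleostasis) is given: human cholestatic liver injury, shown by histopathology or by peak ALT or AST elevation over alkaline phosphatase ratio below 2, value counts indexed literature reports.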
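Wherever Hepatotoxicity (chronic liver disease) is given: chronic liver injury confirmed by histopathology or persistently raised serum aminotransferase activity beyond 6 months, value given as the count of indexed literature references.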
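Wherever Hepatotoxicity (cirrhosis) is given: value is a count of indexed literature references reporting cirrhosis confirmed by histopathology.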
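Wherever Hepatotoxicity (cytolytic) is given: human cytolytic liver injury, shown by histopathology or by a ratio above 5 of peak ALT or AST elevation to alkaline phosphatase elevation, value counts indexed references.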
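Wherever Hepatotoxicity (granulomatous hepatitis) is given: value is a count of indexed literature references reporting granulomatous liver disease confirmed by histopathology.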
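Wherever Hepatotoxicity (malignant tumour) is given: malignant tumour confirmed by histopathology, value gives the count of indexed literature references reporting it.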
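Wherever Hepatotoxicity (severe hepatitis) is given: human clinical data: severe hepatitis, meaning potentially life-threatening liver failure or clinically observed cases, the value counts how many indexed literature references report it.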
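Wherever Hepatotoxicity (steatosis) is given: steatosis confirmed by histopathology, value is the count of indexed references.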

| Compound | Hepatotoxicity (comment) [1] | Hepatotoxicity (cirrhosis) [3] | Hepatotoxicity (association with vascular disease) [4] | Hepatotoxicity (steatosis) [5] | Hepatotoxicity (choleostasis) [6] | Hepatotoxicity (moderate) [7] | Hepatotoxicity (cytolytic) [9] | Hepatotoxicity (mechanism) [10] | Hepatotoxicity (malignant tumour) [11] | Hepatotoxicity (acute) [12] | Hepatotoxicity (time to onset) [13] | Hepatotoxicity (granulomatous hepatitis) [14] | Hepatotoxicity (successful reintroduction) [15] | Hepatotoxicity (chronic liver disease) [17] | Hepatotoxicity (benign tumour) [18] | Hepatotoxicity (acute) [2] | Hepatotoxicity (moderate) [8] | Hepatotoxicity (severe hepatitis) [16] | other results |
| --- | --- | --- | --- | --- | --- | --- | --- | --- | --- | --- | --- | --- | --- | --- | --- | --- | --- | --- | --- |
| NC(=O)N1c2ccccc2C=Cc2ccccc21 [CARBAMAZEPINE] | AC_ANTI-M/-N/-ML CHOLANGITE DUCTOPENIE #CBP REACTIVATION_HSV6 | 1 | 0 | 2 | 41 | 40 | 38 | Allergic, Reactive metabolite | 1 | 73 | 1 day - 8 years | 12 | yes | 4 | 0 |  |  |  | Hepatotoxicity (acute) ([2]; Liver): 0.2%; Hepatotoxicity (moderate) ([8]; Liver): 23.8%; Hepatotoxicity (severe hepatitis) ([16]; Liver): 10 |
| Cc1ncc([N+](=O)[O-])n1CC(O)CCl (configuration not stated) [ORNIDAZOLE] | AC_ANTI-ML/-N | 0 | 0 | 0 | 0 | 1 | 2 | Allergic | 0 | 2 | 3 days - 6 months | 0 | yes | 1 | 0 | 0% | 0% | 0 |  |
| O=C1Nc2ccccc2C1(c1ccc(O)cc1)c1ccc(O)cc1 [OXYPHENISATINE] | AC_ANTI-ADN/-N/-ML | 8 | 0 | 0 | 0 | 0 | 1 | Allergic | 0 | 6 | 1 week - 13 years | 0 | yes | 27 | 0 | 0% | 0% | 1 |  |
| CC[C@H]1OC(=O)[C@H](C)[C@@H](O[C@H]2C[C@@](C)(OC)[C@@H](O)[C@H](C)O2)[C@H](C)[C@@H](O[C@@H]2O[C@H](C)C[C@H](N(C)C)[C@H]2O)[C@](C)(O)C[C@@H](C)C(=O)[C@H](C)[C@@H](O)[C@]1(C)O [ERYTHROMYCIN] | CHOLANGITE #CBP RC/AMOXICILLINE/TROLEANDOMYCINE | 0 | 0 | 0 | 55 | 19 | 20 | Allergic, Toxic | 0 | 72 | 12 hours - 5 weeks | 0 | yes | 0 | 0 | 3% | 38% | 1 |  |
| CCc1oc2ccccc2c1C(=O)c1ccc(O)cc1 [BENZARONE] | AC_ANTI-ML/-N | 1 | 0 | 0 | 0 | 0 | 3 | Allergic | 0 | 5 | 2 weeks - 2 years | 0 | yes | 3 | 0 | 0% | 0% | 2 |  |
| Nc1ccc(O)c(C(=O)O)c1 [MESALAMINE] | CHOLANGITE RC/SULFASALAZINE AC_ANTI-N/-ML | 0 | 0 | 0 | 3 | 14 | 5 | Allergic | 0 | 12 | 1 day - 1 year | 1 | yes | 1 | 0 | 1% | 21% | 1 |  |
| O=C(O)CCCCCCNC1c2ccccc2CCc2ccccc21 [AMINEPTINE] | RC/CLOMIPRAMINE | 1 | 0 | 5 | 18 | 6 | 17 | Allergic, Reactive metabolite | 0 | 20 | 1 day - 10 months | 0 | yes | 0 | 0 | 0% | 0.6% | 0 |  |
| COc1ccc([C@@H]2Sc3ccccc3N(CCN(C)C)C(=O)[C@@H]2OC(C)=O)cc1 [DILTIAZEM] | RC/AMLODIPINE | 0 | 0 | 1 | 5 | 20 | 6 | Allergic | 0 | 11 | 1 day - 5 months | 2 | yes | 0 | 0 | 2.4% | 6% | 1 |  |
| O=C(O)c1cc(/N=N/c2ccc(S(=O)(=O)Nc3ccccn3)cc2)ccc1O [SULFASALAZINE] | DUCTOPENIE RC/COTRIMOXAZOLE/MESALAZINE/OLSALAZINE | 0 | 0 | 1 | 14 | 44 | 31 | Allergic | 0 | 50 | 1 day - 1 year | 11 | yes | 2 | 0 | 5.7% | 26.7% | 11 |  |
